Laboratory results taken from ChEMBL document CHEMBL1156829 (Proc Natl Acad Sci U S A, 2008).

Key:
[1] = system: Plasmodium falciparum; assay: NOVARTIS: Inhibition of Plasmodium falciparum 3D7 (drug-susceptible) proliferation in erythrocyte-based infection assay; assay type: functional, organism-based; settings: Plasmodium falciparum, 3D7
[2] = system: Plasmodium falciparum; assay: NOVARTIS: Inhibition of Plasmodium falciparum W2 (drug-resistant) proliferation in erythrocyte-based infection assay; assay type: functional, organism-based; settings: Plasmodium falciparum, W2; read-out: EC50
[3] = NOVARTIS: Cytotoxicity against human hepatocellular carcinoma cell line (Huh7); assay type: toxicity, cell-based, Huh-7; settings: Huh7 cells (hepatocellular carcinoma cell line)

Row | Compound | EC50 [1] [nM] | EC50 [2] [nM] | CC50 [3] [nM]
1 | O=C(NCCc1ccccc1)C(=O)NN=Cc1ccccc1 | > 1250 | > 82 | > 10000
2 | Cc1ccc2[nH]c3c(NCCCN(C)C)ncnc3c2c1 | 77.7 | 355 | 42000
3 | OC(COc1ccc(OCC(O)CN2CCN(CCOc3ccccc3)CC2)cc1)CN1CCN(CCOc2ccccc2)CC1 (centres undefined) | > 11000 | 853 | > 100000
4 | COc1ccc(NC(=O)CCCCCn2c(SCC(=O)NCCc3ccc(OC)c(OC)c3)nc3ccsc3c2=O)cc1 | > 5310 | 837 | > 100000
5 | COc1cc(N)c(Cl)cc1C(=O)NCC1CCN(c2nc(C)cc(C)n2)CC1 | 345 | 531 | 64900
6 | Cc1cc(Cl)ccc1OC(C)C(=O)N1CCc2ccccc21 (centres undefined) | 632 | 812 | > 100000
7 | CCN(CC)S(=O)(=O)c1ccc2[nH]cc(C(=O)NCCCN3CCN(c4ccc(OC)cc4)CC3)c(=O)c2c1 | 2340 | 420 | 51600
8 | O=C(CSc1ccc2nnc(-c3cccc(F)c3)n2n1)Nc1ccc2c(c1)OCO2 | 2110 | 819 | > 100000
9 | COC(=O)c1ccc2c(=O)n(Cc3ccco3)c(SCC(=O)n3nc(N)cc3C)nc2c1 | 337 | 819 | > 100000
10 | Fc1ccc(Nc2nc(NCc3ccco3)c3ccccc3n2)cc1 | 191 | 101 | 12400
11 | COc1cc([N+](=O)[O-])ccc1NC(=O)CN1CCN(C(=O)c2ccco2)CC1 | 1600 | 832 | > 100000
12 | Cc1cc(N2CCN(Cc3ccccc3)CC2)n2c(nc3ccccc32)c1C#N | 323 | 832 | > 100000
13 | Cc1cc(C)nc(Nc2nc(C)c3cc(C)c(C)cc3n2)n1 | 1320 | 829 | > 100000
14 | O=C(Cc1cccs1)N1CCC(n2c(Cc3ccc(F)cc3)nc3cccnc32)CC1 | > 12500 | 827 | > 100000
15 | CCOC(=O)c1c(N)n(-c2ccc(CC)cc2)c2nc3ccccc3nc12 | 797 | 823 | > 100000
16 | CCOC(=O)c1cnc2ccc(C)cc2c1NCCCN1CCOCC1 | 900 | 827 | > 100000
17 | Cc1nc(C(C)N(C)Cc2c(C(=O)N3CCCCCCC3)nc3sccn23)c(C)s1 (centres undefined) | > 7030 | 825 | > 100000
18 | CC(C)(C)CC(C)(C)Nc1c(-c2ccccc2OC(=O)c2cccc(Br)c2)nc2ccccn12 | 6620 | 823 | > 100000
19 | COc1ccccc1Nc1nc2cc([N+](=O)[O-])c([N+](=O)[O-])cc2nc1Nc1cccc(Cl)c1 | > 1250 | 82.2 | > 10000
20 | COc1cc(NC(=O)Cn2c3ccccc3c(=O)c3ccccc32)cc(OC)c1OC | 2730 | 816 | > 100000
21 | CCOC(=O)C1=C(C)NC(=Cc2cc(C)n(-c3cccc(Br)c3)c2C)C1=O | 2880 | 805 | > 100000
22 | COc1cc(/C=C\C(=O)Nc2c3c(nn2-c2ccc(F)cc2)CSC3)cc(OC)c1OC | 614 | 84.4 | > 10000
23 | COc1cc2nc(NCc3ccccc3)n3nc(-c4cccnc4)nc3c2cc1OC | > 12500 | 810 | > 100000
24 | COC(=O)[C@@H]1C[C@H](NC(=O)c2ccc(OC)cc2OC)CN1Cc1cccc2ccccc12 | > 1250 | > 80.9 | > 10000
25 | CC(C)(C)Cc1ccc(OCCCC(=O)Nc2ccc(Cl)c(N)c2)c(CC(C)(C)C)c1 | 1730 | 848 | > 100000
26 | C=CCSc1nc2sc3c(c2c(=O)n1-c1ccccc1)CCN(CCC)C3 | 634 | 847 | > 100000
27 | CC(C)(C)c1ccc(Cn2nnc3c(O)nc(C4CCN(C(=O)c5ccccc5)CC4)nc32)cc1 | 242 | 852 | > 100000

Row | Compound | EC50 [1] [nM] | EC50 [2] [nM] | CC50 [3] [nM]
28 | CCN1CCN(c2cc(C)c3cc(NC(=O)c4ccc(F)c([N+](=O)[O-])c4)ccc3n2)CC1 | 1160 | 365 | 42900
29 | CC1=C(C(=O)OC(C)C)C(c2cccc([N+](=O)[O-])c2)C2=C(CCCC2=O)N1 (centres undefined) | > 11100 | 854 | > 100000
30 | Cc1cc(C)c(S(=O)(=O)N(C)CCCNc2ccnc3cc(Cl)ccc23)c(C)c1 | 167 | 229 | 26800
31 | CCN(CC)CCN1C(=O)c2ccccc2NC1c1ccc(Cl)cc1 (centres undefined) | 370 | 455 | 53300
32 | CC(=O)Nc1ccc2c(c1)C(=O)N(C(CC(C)(C)C)C(=O)NC1CCCCC1)[C@@H](CCC(=O)O)C(=O)N2 (some centres undefined) | 868 | 51.6 | 6180
33 | C1CCC(CN2CCc3nc(N4CCCCC4)sc3C2)CC1 | 254 | 83.2 | > 10000
34 | Cc1cc(C)n(-c2ccc(NC(=O)C3CCN(Cc4cnc(C)s4)CC3)cc2)n1 | 811 | 840 | > 100000
35 | Cc1nonc1C(=O)NN=Cc1ccc([N+](=O)[O-])o1 | 1730 | 420 | 49300
36 | CC(C)(C)CC(=O)NCCCCNc1ccnc2cc(Cl)ccc12 | 20.7 | 102 | > 12200
37 | COc1ccc(O)c(C=NNc2nc3ccccc3[nH]2)c1 | 576 | 355 | 43900
38 | COc1cccc(CCNC(=O)c2ccc(OC3CCN(CC(c4ccccc4)c4ccccc4)CC3)c(OC)c2)c1 | 1070 | 84.5 | > 10000
39 | COc1ccc2[nH]c(=O)c(CN(C(=S)Nc3ccccc3OC)C3CCCC3)cc2c1 | 995 | 824 | > 100000
40 | CCOC(=O)C1=C(C)N=c2sc(=Cc3cc(Br)ccc3O)c(=O)n2C1c1ccc(OC)c(OC)c1 (centres undefined) | 2100 | 814 | > 100000
41 | COc1ccc(C(=O)C[n+]2cc(-c3ccc(OC)cc3)n3c2CCC3)cc1 | 892 | 822 | > 100000
42 | COc1ccccc1Cn1c(SCC(=O)Nc2cccc(C(F)(F)F)c2)nc2ccc(Br)cc2c1=O | 735 | 831 | > 100000
43 | Cc1ccc(C)c(N2CCN(CCCNC(=O)c3ccc(CSc4nc5cnccc5[nH]4)cc3)CC2)c1 | 644 | 190 | 23000
44 | O=C1NN(c2ccc(Br)cc2)C(=O)C1=Cc1c(O)ccc2ccccc12 | 4880 | 818 | > 100000
45 | Cn1cnc(S(=O)(=O)Nc2ccccc2C(=O)NCC2CC2)c1 | > 1470 | 82.1 | > 10000
46 | COc1cccc(Cn2c3cc(C)sc3c3cnn(C)c(=O)c32)c1 | 497 | 583 | 68600
47 | CCc1nnc2sc(-c3ccc(NC(=O)c4ccc(Br)o4)cc3)nn12 | 5050 | 833 | > 100000
48 | COc1ccc(CNCc2cc3c(-c4ccc(C)cc4)nn(-c4ccccc4)c3[nH]c2=O)cc1 | 133 | 842 | > 100000
49 | COc1ccc(C2N(Cc3ccccc3)c3ccccc3N2Cc2ccccc2)cc1 | 561 | 431 | 53000
50 | CO/C(=C\C(N)=O)C(C)C(/C=C/c1csc(-c2csc(C(C)/C=C/C=C/C(C)C)n2)n1)OC (centres undefined) | 1240 | 84.6 | > 10000
51 | O=C(C1CC1)N1CCc2cc(Br)cc(S(=O)(=O)N3CCCCCC3)c21 | 1430 | 834 | > 100000
52 | C=CCc1c(C)nc2ccccc2c1O | 707 | 844 | > 100000
53 | CCn1c(SCc2ccc([N+](=O)[O-])cc2)nc2sc3c(c2c1=O)CCN(C)C3 | 470 | 808 | > 100000
